Data: paper PMC5024786 (Organic letters, 2015)

Target: T1, ACC deaminase (1-aminocyclopropane-1-carboxylic acid deaminase) (Pseudomonas sp. ACP, UniProt Q00740)
T1 sequence (Q00740 1-338): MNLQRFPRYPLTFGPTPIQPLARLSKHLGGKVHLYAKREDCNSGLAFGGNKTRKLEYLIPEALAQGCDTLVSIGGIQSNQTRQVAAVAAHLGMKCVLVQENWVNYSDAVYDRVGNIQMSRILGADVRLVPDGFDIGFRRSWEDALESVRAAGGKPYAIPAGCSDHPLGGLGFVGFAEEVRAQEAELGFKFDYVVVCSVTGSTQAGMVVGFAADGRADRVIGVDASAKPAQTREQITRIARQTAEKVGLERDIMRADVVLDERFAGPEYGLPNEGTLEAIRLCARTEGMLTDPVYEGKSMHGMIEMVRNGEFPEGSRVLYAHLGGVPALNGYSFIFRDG
Assay type: biochemical

Compound `NC1(C(=O)O)CC1(F)F` (racemic) [compound 3, 1-Amino-2,2-difluorocyclopropane-1-carboxylic acid] has a Ki of 120 ± 40 nM.
